# Laboratory results taken from patent publication US20140303092A1 (CHIMERIX, INC., priority 2011, published 2014).
# Assay: Study HDP-CDV-201: safety and tolerability (adverse events, laboratory abnormalities, discontinuations)
# Assay type: in vivo, human (adult allogeneic HSCT recipients)
# Details: Cohort 4A, 100 mg BIW
# Procedure: Clinical Studies of HDP-CDV were performed and described in detail in the following Examples. For example, HDP-CDV-201 is a placebo-controlled, dose-escalating trial in HSCT CMV (R+) recipients, evaluating the ability of HDP-CDV to prevent or control CMV infection was carried out. Five cohorts were established in which participants or subjects received either placebo or the HDP-CDV orally, in doses ranging from 40 mg weekly (QW) to 200 mg twice weekly (BIW). Subjects who were post-HSCT were enrolled at the time of engraftment and randomized to HDP-CDV or placebo (3 to 1 ratio) and received blinded therapy until approximately 100 day post-transplantation. HDP-CDV doses were 40 mg QW, 100 mg QW, 200 mg QW, 200 mg BIW and 100 mg BIW. Escalation to the next dose was decided by the data monitoring committee after review of the safety data from the previous Cohort. Subjects who developed CMV disease or CMV infection requiring pre-emptive therapy with local standard of care were discontinued from blinded therapy and followed for 4 weeks. Subjects who completed treatment with blinded therapy were followed for 8 weeks post-therapy.
# Data from Study HDP-CDV-201 also provided characterization of the safety and tolerability profile of HDP-CDV when administered for the prevention or control of CMV infection in high risk (R^+) post-HSCT adult subjects.
# The Safety population (SAFETY) included all randomized subjects who took at least one dose of study treatment. This population was used to summarize safety outcomes based on the treatment actually received, in cases where a subject was treated contrary to the randomization schedule.
# The safety and tolerability profile of HDP-CDV, including subject demographics and Baseline characteristics; the AE profile; and laboratory abnormalities of interest were analyzed in the cohorts followed in this investigation.
# Subjects completing the treatment period received a full course of study medication; those completing the entire study attended visits through 8 weeks of follow up. Subjects who discontinued treatment may have done so for protocol specified reasons (e.g. development of clinically significant CMV infection requiring preemptive treatment with excluded anti-CMV medications) or for other reasons (e.g., withdrawal, adverse events, loss to follow-up). The disposition of subjects in Study HDP-CDV-201 during the double-blind, placebo-controlled treatment period (through Week 11) is listed by dosing Cohort in TABLE 23.
# Adverse events were examined by severity to ensure that all safety signals were identified in this study population. Because of the frequency of events in HSCT recipients, particular attention was given to evaluation of Grade 3 […], 4 (severe), and 5 (fatal) adverse events.
# Only those preferred terms for which at least one Grade 3 or higher event was experienced in any treatment group are listed. Cytomegalovirus-related AEs are excluded from this analysis.
# HDP-CDV is a lipid conjugate of CDV. Because CDV is known to have adverse effects on renal function and bone marrow, decreased GFR and persistent neutropenia were identified as AEs of special interest. Key renal and hematological (TABLE 30) laboratory parameters were measured and listed below by Study HDP-CDV-201 treatment groups. TABLE 30 includes abnormal levels of serum creatinine, neutrophils, platelets, WBCs, and hemoglobin and includes data at Screening and during the treatment period.
# A common metric for unit based dosing of medications is by weight (mg/kg). When the distribution of weights was examined for all subjects participating in the study, the median was 78 kg and the lower 25th percentile weight was approximately 65 kg, which translates to a cut-off of ˜3 mg/kg for a 200 mg total weekly dose. Based upon this approach, a cut-off of 3 mg/kg was used to assess the frequency of diarrhea and associated GI AEs reported for the subjects in Cohorts 3 or 4a (TABLE 40).
smiles,measurement,value
CCCCCCCCCCCCCCCCOCCCOP(=O)(O)COC(CO)Cn1ccc(N)nc1=O (centres unmarked) [HDP-CDV],"ALT (Screening) >3 × ULN-5 × ULN, subjects",1 (2.2%)
same,"ALT (Screening) >5 × ULN-10 × ULN, subjects",1 (2.2%)
same,"ALT (Screening) >10 × ULN-20 × ULN, subjects",1 (2.2%)
same,"ALT (Screening) >20 × ULN, subjects",0
same,"ALT (any time during therapy) >3 × ULN-5 × ULN, subjects",10 (20.0%)
same,"ALT (any time during therapy) >5 × ULN-10 × ULN, subjects",4 (8.0%)
same,"ALT (any time during therapy) >10 × ULN-20 × ULN, subjects",1 (2.0%)
same,"ALT (any time during therapy) >20 × ULN, subjects",1 (2.0%)
same,"AST (Screening) >3 × ULN-5 × ULN, subjects",1 (2.2%)
same,"AST (Screening) >5 × ULN-10 × ULN, subjects",1 (2.2%)
same,"AST (Screening) >10 × ULN-20 × ULN, subjects",1 (2.2%)
same,"AST (Screening) >20 × ULN, subjects",0
same,"AST (any time during therapy) >3 × ULN-5 × ULN, subjects",2 (4.0%)
same,"AST (any time during therapy) >5 × ULN-10 × ULN, subjects",3 (6.0%)
same,"AST (any time during therapy) >10 × ULN-20 × ULN, subjects",0
same,"AST (any time during therapy) >20 × ULN, subjects",0
same,"Alkaline Phosphatase (Screening) >2.5-5.0 × ULN, subjects",0
same,"Alkaline Phosphatase (Screening) >5.0-20.0 × ULN, subjects",0
same,"Alkaline Phosphatase (Screening) >20.0 × ULN, subjects",0
same,"Alkaline Phosphatase (Screening) >ULN-[…] ULN, subjects",8 (17.4%)
same,"Alkaline Phosphatase (any time during therapy) >2.5-5.0 × ULN, subjects",3 (6.0%)
same,"Alkaline Phosphatase (any time during therapy) >5.0-20.0 × ULN, subjects",0
same,"Alkaline Phosphatase (any time during therapy) >20.0 × ULN, subjects",0
same,"Alkaline Phosphatase (any time during therapy) >ULN-[…] ULN, subjects",11 (22.0%)
same,"GI AE Leading to Study Drug Discontinuation: Abdominal pain, subjects",1 (2.0%)
same,"GI AE Leading to Study Drug Discontinuation: Diarrhoea, subjects",2 (4.0%)
same,"GI AE Leading to Study Drug Discontinuation: Dyspepsia, subjects",0
same,"GI AE Leading to Study Drug Discontinuation: Nausea, subjects",1 (2.0%)
same,"GI AE Leading to Study Drug Discontinuation: Vomiting, subjects",1 (2.0%)
same,GI AEs Leading to Study Drug Discontinuation: Total subjects discontinued,5 (10.0%)
same,"Gastrointestinal AE Abdominal discomfort, subjects",4 (8.0%)
same,"Gastrointestinal AE Abdominal distention, subjects",0
same,"Gastrointestinal AE Abdominal pain upper, subjects",2 (4.0%)
same,"Gastrointestinal AE Abdominal pain, subjects",13 (26.0%)
same,"Gastrointestinal AE Constipation, subjects",2 (4.0%)
same,"Gastrointestinal AE Diarrhoea, subjects",26 (52.0%)
same,"Gastrointestinal AE Diverticulum intestinal haemorragic, subjects",0
same,"Gastrointestinal AE Dyspepsia, subjects",4 (8.0%)
same,"Gastrointestinal AE Dysphagia, subjects",0
same,"Gastrointestinal AE Epigastric discomfort, subjects",0
same,"Gastrointestinal AE Flatulence, subjects",3 (6.0%)
same,"Gastrointestinal AE GERD, subjects",0
same,"Gastrointestinal AE Gastritis, subjects",0
same,"Gastrointestinal AE Haematochezia, subjects",0
same,"Gastrointestinal AE Haemorroids, subjects",1 (2.0%)
same,"Gastrointestinal AE Large intestinal ulcer, subjects",0
same,"Gastrointestinal AE Nausea, subjects",17 (34.0%)
same,"Gastrointestinal AE Odynophagia, subjects",0
same,"Gastrointestinal AE Oesophagitis, subjects",0
same,"Gastrointestinal AE Retching, subjects",2 (4.0%)
same,"Gastrointestinal AE Vomiting, subjects",22 (44.0%)
same,"Hepatobiliary clinical AE Cholelithiasis, subjects",0
same,"Hepatobiliary clinical AE Hepatomegaly, subjects",0
same,"Hepatobiliary clinical AE Hyperbilirubinaemia, subjects",3 (6.0%)
same,"Hepatobiliary clinical AE Jaundice, subjects",0
same,"Hepatobiliary clinical AE Liver injury, subjects",0
